# Data published in patent publication US12404260B2, “Pyridine rings containing derivatives as MALT1 inhibitors” (Janssen Pharmaceutica NV, priority 2019, dated 2025).
# pIC50: −log10 of the molar value.
# Columns and labels:
# [1] = biological target: T1, full-length MALT1 protein (Strep-MALT1(1-824)-His) (Homo sapiens, UniProt Q9UDY8); test: MALT1 Biochemical Protease Assay; details: 10 nM FL MALT1, 200 μM Ac-LRSR-AMC, 50 min pre-incubation, 4 h at RT; read-out: MALT1_Biochemical activity (Ac-LRSR-amc) IC50
# T1 construct: full-length MALT1 protein (Strep-MALT1(1-824)-His) purified from baculovirus-infected insect cells; Strep (N); His (C); made in house; host or cells: baculovirus-infected insect cells
# T1 sequence (Q9UDY8 1-824): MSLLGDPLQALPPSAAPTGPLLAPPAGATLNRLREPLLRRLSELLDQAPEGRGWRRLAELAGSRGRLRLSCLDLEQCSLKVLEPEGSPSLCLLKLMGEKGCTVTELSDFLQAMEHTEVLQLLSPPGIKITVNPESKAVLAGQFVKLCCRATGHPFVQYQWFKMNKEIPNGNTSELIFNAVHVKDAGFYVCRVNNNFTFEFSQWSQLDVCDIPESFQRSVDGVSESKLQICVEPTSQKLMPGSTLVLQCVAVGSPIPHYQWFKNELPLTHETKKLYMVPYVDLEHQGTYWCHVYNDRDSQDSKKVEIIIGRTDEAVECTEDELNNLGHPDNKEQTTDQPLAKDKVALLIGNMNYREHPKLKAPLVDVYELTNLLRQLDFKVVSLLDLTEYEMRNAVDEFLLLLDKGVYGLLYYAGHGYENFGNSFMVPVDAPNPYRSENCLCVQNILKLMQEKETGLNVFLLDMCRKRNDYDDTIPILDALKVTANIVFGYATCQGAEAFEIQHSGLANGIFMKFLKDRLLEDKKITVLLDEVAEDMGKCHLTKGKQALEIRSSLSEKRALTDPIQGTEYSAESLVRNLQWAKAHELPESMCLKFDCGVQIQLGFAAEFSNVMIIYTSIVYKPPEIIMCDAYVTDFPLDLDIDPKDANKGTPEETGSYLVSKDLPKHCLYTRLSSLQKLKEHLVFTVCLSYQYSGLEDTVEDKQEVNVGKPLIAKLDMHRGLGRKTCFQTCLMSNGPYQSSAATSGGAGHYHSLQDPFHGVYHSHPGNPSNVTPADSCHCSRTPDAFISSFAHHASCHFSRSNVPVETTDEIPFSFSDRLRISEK
# Procedure: MALT1 protease activity was assessed in an in vitro assay using a tetrapeptide as substrate and full-length MALT1 protein (Strep-MALT1(1-824)-His) purified from baculovirus-infected insect cells. The tetrapeptide LRSR is coupled to AMC (7-amino-4-methylcoumarin) and provides a quenched, fluorescent substrate for the MALT1 protease (SM Biochemicals). Cleavage of AMC from the Arginine residue results in an increase in coumarin fluorescence measured at 460 nm (excitation 355 nm). The final assay buffer consisted of 10 nM FL MALT1 protein, 200 μM Ac-LRSR-AMC, 50 mM Tris pH 7.5, 0.6 M Citrate, 1 mM DTT, 1 mM EDTA, 0.05% BSA and 1.5% DMSO. Test compounds were spotted at 50 nL in 100% DMSO per well of a black 384-Proxiplate (Perkin Elmer). Test compound concentrations ranged from 30 μM to 0.5 nM using 11 dilution steps (1:3). Background signal was measured from control wells containing assay buffer without enzyme which functions as low control (LC). High control (HC) values were generated using the reaction with enzyme but no compound treatment. Compounds were pre-incubated with MALT1 enzyme for 50 minutes at RT. Substrate was added subsequently and fluorescence was measured in Labsystems fluoroskan at excitation 355 nm and emission 460 nm to determine time 0. The reaction was subsequently incubated for 4 h at RT and fluorescence was measured. For IC50 calculations, timepoint 0 was subtracted from the 4 h timepoint to correct for any potential autofluorescence of the compounds. The enzyme reaction was linear during the 4 h incubation period. Characterization of the substrate Ac-LRSR-AMC determined the Michaelis constant KM at 200 μM.
# IC50 values were calculated using the following formula (Z prime should be >0.5): […]
# A best-fit curve was fitted by a minimum sum of squares method to the plot of % Controlmin vs. compound concentration. From this an IC50 value (inhibitory concentration causing 50% inhibition) can be obtained. An estimate of the slope of the plot in terms of the Hill coefficient was also obtained.
# Used in “Lexis Dose Response Curve Fitting” Version 1.0.
# [2] = tested on: secretion of IL10 by OCI-LY3 ABC-DLBCL cells; test: Human IL10 Mesoscale assay (OCI-LY3); format: cell-based; details: 24 h incubation, IL10 in supernatant
# Procedure: (§1) NFKB signaling regulates the secretion of multiple cytokines, including IL6 and IL10. Secretion of the cytokines IL6 and IL10 by OCI-LY3 ABC-DLBCL cells was measured using a mesoscale assay. Inhibition of NFKB signaling by MALT1 inhibitors results in a decrease of IL6/10 secretion.
# (§2) OCI-LY3 cells were propagated in RPMI-1640 (Sigma Aldrich) supplemented with 10% fetal bovine serum (HyClone), 1 mM sodium pyruvate (Invitrogen), 2 mM L-glutamine (Sigma Aldrich) and 1% PenStrep (Sigma Aldrich). Cell passage number should not exceed 30. Cells should be kept between 0.5-2.5 million cells per mL during culturing and cells should be supplemented every 2-3 days with fresh 50 μM beta-mercaptoethanol. No beta-mercaptoethanol was used during the mesoscale assay.
# (§3) For the Mesoscale assay, 100,000 OCI-LY3 cells were seeded per well into black-colored 96-well plates with clear bottom (Corning #3904) and test compounds were added in 9 dilution steps (1:2) ranging from 15 μM to 58.6 nM (final DMSO concentration 0.3%). DMSO control wells were used to determine the maximum signal (High Control (HC)). Treatment with the BTK inhibitor RN486 in a dose range from 30 nM to […] (9 dilutions of 1:2) served as a positive control for NFKB pathway inhibition and was used to determine the maximum inhibition (Low Control (LC)). Compounds and cells were incubated for 24 h at 37° C. and 5% CO2 (assay volume is 150 μL). After 24 h of incubation 50 μL of the supernatant was transferred to a MSD plate (V-Plex Proinflammation Panel 1 (human) kit, Mesoscale (MSD)) and incubated for 2 h with vigorous shaking (600 rpm) at room temperature. Following incubation, plates were washed 3× with PBS+0.05% Tween-20 and 25 μL detection antibody solution (IL6 & IL10 antibodies in diluent 3 (MSD)) was added per well followed by 2 h of incubation with vigorous shaking (600 rpm) at room temperature. After 3× washes with PBS+0.05% Tween-20, plates were incubated with 150 μL 2× Read Buffer T and read on SECTOR imager.
# [3] = tested on: secretion of IL6 by OCI-LY3 ABC-DLBCL cells; test: Human IL6 Mesoscale assay (OCI-LY3); format: cell-based; details: 24 h incubation, IL6 in supernatant
# Procedure: as §1, §2, §3
SMILES,pIC50 [1],pIC50 [2],pIC50 [3],pIC50 ([2]; Homo sapiens),pIC50 ([3]; Homo sapiens)
COc1nc(-n2nccn2)c(Cl)cc1NC(=O)Nc1cnc(C)c(Cl)c1[C@H](C)OC [Co. 83],6.46,6.74,6.30,,
CCOC(=O)c1cncc(NC(=O)Nc2cnc(-n3nccn3)c(Cl)c2)c1[C@@H](C)OC [Co. 36],6.64,6.85,6.66,,
COC(C)c1c(NC(=O)Nc2cnc(-n3nccn3)c(Cl)c2)cncc1OC1COC1 (stereo not shown) [Co. 12],5.77,,,,
COc1ncc(NC(=O)Nc2cnc(C)c(Cl)c2[C@H](C)OC)cc1C#N [Co. 76],6.80,6.96,6.89,,
COc1ncc(NC(=O)Nc2cnc(C)c(Cl)c2[C@@H](C)OC)cc1C#N [Co. 77],5.08,5.22,5.12,,
"CO[C@@H](C)c1c(NC(=O)Nc2cnc(OC(F)F)c(Cl)c2)cnc(N)c1Cl (single isomer, unassigned) [Co. 135]",5.70,,,,
"COc1cncc(NC(=O)Nc2cc(Cl)c(-n3nccn3)nc2OC)c1[C@@H](C)OC (single isomer, unassigned) [Co. 140]",~6.21,,,6.33,6.27
COc1nc(-n2nccn2)c(Cl)cc1NC(=O)Nc1cnc(C)c(C#N)c1[C@@H](C)OC [Co. 79],7.70,7.22,6.96,,
CO[C@H](C)c1c(NC(=O)Nc2cnc(C3CC3)c(C(F)(F)F)c2)cnc(C)c1Cl [Co. 67],5.71,5.75,5.38,,
COc1nc(-n2nccn2)c(Cl)cc1NC(=O)Nc1cnc(C)c(Cl)c1[C@@H](C)OC [Co. 82],7.30,7.05,6.92,,
COC(C)c1c(NC(=O)Nc2cnc(-n3nccn3)c(Cl)c2)cnc(C2CC2)c1Br (stereo not shown) [Co. 47],5.06,,,,
CO[C@H](C)c1c(NC(=O)Nc2cnc(OC(F)F)c(Cl)c2)cnc(C)c1C#N [Co. 71],,6.82,6.49,,
COC(C)c1c(Br)cnc(C2CC2)c1NC(=O)Nc1cnc(-n2nccn2)c(Cl)c1 (stereo not shown) [Co. 48],< 4.52,,,,
CO[C@@H](C)c1c(NC(=O)Nc2cnc(-n3nccn3)c(Cl)c2)cncc1OCc1ccccc1 [Co. 2],5.62,,,,
COC(C)c1c(NC(=O)Nc2cnc(-n3nccn3)c(Cl)c2)cncc1OCc1ccccc1 (stereo not shown) [Co. 3],< 4.52,,,,

# Second part, the molecule after the results:
pIC50 [1],pIC50 [2],pIC50 [3],pIC50 ([2]; Homo sapiens),pIC50 ([3]; Homo sapiens),SMILES
6.72,6.92,6.59,,,CO[C@@H](C)c1c(C#N)cncc1NC(=O)Nc1cnc(-n2nccn2)c(Cl)c1 [Co. 26]
7.10,6.96,6.82,,,COc1cncc(NC(=O)Nc2cnc(-n3nccn3)c(C(F)(F)F)c2)c1[C@@H](C)OC [Co. 124]
6.77,6.77,6.72,,,CO[C@H](C)c1c(NC(=O)Nc2cnc(-n3nccn3)c(Cl)c2)cncc1OC(C)C [Co. 9]
5.55,,,,,COC(C)c1c(NC(=O)Nc2cnc(-n3nccn3)c(Cl)c2)cncc1NC(C)C (stereo not shown) [Co. 32]
7.70,7.30,7.22,,,CO[C@H](C)c1c(NC(=O)Nc2cnc(-n3nccn3)c(Cl)c2)cnc(C)c1Br [Co. 45]
5.58,,,,,COC(C)c1c(F)cncc1NC(=O)Nc1cnc(-n2nccn2)c(Cl)c1 (racemic) [Co. 21]
5.91,,,,,COC(C)c1c(NC(=O)Nc2cnc(-n3nccn3)c(Cl)c2)cncc1C1COC1 (racemic) [Co. 31]
5.76,,,,,COC(C)c1c(NC(=O)Nc2cnc(-n3nccn3)c(Cl)c2)cncc1OCC1CC1 (stereo not shown) [Co. 11]
6.54,,,6.42,6.22,"CO[C@H](C)c1c(NC(=O)Nc2cnc(-n3nccn3)c(C(F)(F)F)c2)cnc(N)c1Br (single isomer, unassigned) [Co. 138]"
5.38,< 5.52,< 5.52,,,COC(C)c1c(C)cncc1NC(=O)Nc1cnc(-n2nccn2)c(Cl)c1 (racemic) [Co. 20]
5.86,,,5.99,5.64,"[2H]C([2H])([2H])Oc1cncc(NC(=O)Nc2cnc(-n3nccn3)c(C(F)(F)F)c2)c1[C@H](C)OC (single isomer, unassigned) [Co. 129]"
6.01,5.75,5.74,,,C=C(C)c1cncc(NC(=O)Nc2cnc(-n3nccn3)c(Cl)c2)c1C(C)OC (racemic) [Co. 29]
6.77,,,,,COc1cncc(NC(=O)Nc2cnc(-n3nccn3)c(Cl)c2)c1C(C)OC (stereo not shown) [Co. 7]
5.67,,,,,COC(C)c1c(NC(=O)Nc2cnc(-n3nccn3)c(Cl)c2)cncc1C(C)C (racemic) [Co. 30]
5.56,,,,,"COC(C)c1c(Br)cncc1NC(=O)Nc1cnc(-n2nccn2)c(Cl)c1 (single isomer, unassigned) [Co. 19]"
5.85,,,,,COC(C)c1c(NC(=O)Nc2cnc(-n3nccn3)c(Cl)c2)cncc1OCC(N)=O (stereo not shown) [Co. 16]
5.74,,,,,CNc1cncc(NC(=O)Nc2cnc(-n3nccn3)c(Cl)c2)c1C(C)OC (racemic) [Co. 33]
5.52,,,,,CO[C@@H](C)c1c(NC(=O)Nc2cnc(-n3nccn3)c(Cl)c2)cncc1OC(C)C [Co. 10]
6.07,,,,,COC(C)c1c(NC(=O)Nc2cnc(-n3nccn3)c(Cl)c2)cncc1OC1CC1 (racemic) [Co. 13]
5.58,,,,,CO[C@@H](C)c1c(O)cncc1NC(=O)Nc1cnc(-n2nccn2)c(Cl)c1 [Co. 5]
4.62,,,,,COC(C)c1c(O)cncc1NC(=O)Nc1cnc(-n2nccn2)c(Cl)c1 (stereo not shown) [Co. 6]
5.13,,,,,COC(C)c1c(Br)cnc(C)c1NC(=O)Nc1cnc(-n2nccn2)c(Cl)c1 (racemic) [Co. 50]
